# Experiments:
# BHK-21 cells = experiment: inhibition of BHK-21 cell proliferation (CCK-8, optical density at 450 nm); type: cell-based; conditions: for IC50: Mesocricetus auratus, inhibition ratio of cell proliferation, 48 hours after dosing, CCK-8; for The ratio with PFD (multiple): ratio of Pirfenidone IC50 from the compound IC50, the bigger the multiple, the better the vitro inhibitory activity, 48 hours
# Experimental: Taking BHK-21 cells which in exponential growth phase, collecting and counting the cells which had digestive transfer culture after fusion growth 85-95%, adjusting the cell density to 2×10^4 cells per milliliter, seeding the cells into 96-well plates, 100 μl/well, the cells were incubated in a 5% CO2 incubator at 37° C.
# The upper clear liquid of the 96-well plates was removed after the cells adhering to the wall 24 hours. The above compounds were confected into solutions of different concentration and the solutions were added to the wells, 100 μl/well. Each concentration solution in 3 replicates, the cells were subcultured 48 hours after dosing.
# 3. Testing the Optical Density
# 10 μl of CCK-8 solution was added to each well 48 hours after dosing, and incubated for 2 hours. The optical density (A) of each well was determined by a microplate reader at 450 nm wavelength. Calculating the inhibition ratio of cell proliferation of each compound is based on A and the inhibition ratio of cell proliferation (inhibition ratio, IR)=(1−value of experimental group (Ai)/value of control group (Ao))×100% and the IC50 of each compound at 48 hours was calculated by data processing software.
# ECM gathering = conditions: animal experiments of renal fibrosis, pulmonary fibrosis; clinical trials of patients with specific lung fibrosis; cited from earlier work
Compound,IC50 (BHK-21 cells),The ratio with PFD (multiple) (BHK-21 cells),effect on ECM gathering (ECM gathering)
"CCCCCCN(CCCCCC)c1ccc(-n2c(C)nc(C)cc2=O)cc1Br [Example 41, 3-(3-bromo-4-(dihexylamino)phenyl)-2,6-dimethylpyrimidin-4(3H)-one]",60 µM,32.65 multiple,
"CCCCCCN(CCCCCC)c1ccc(-n2c(C)nc(C)cc2=O)cc1C#N [Example 42, 2-(dihexylamino)-5-(2,4-dimethyl-6-oxopyrimidin-1(6H)-yl)benzonitrile]",70 µM,27.39 multiple,
"Cc1cc(=O)n(-c2ccc(NC(C)(C)Cc3ccc4ccccc4c3)c(Cl)c2)c(C)n1 [Example 45, 3-(3-chloro-4-((2-methyl-1-(naphthalen-2-yl)propan-2-yl)amino)phenyl)-2,6-dimethylpyrimidin-4(3H)-one]",70 µM,42.60 multiple,
"Cc1cc(=O)n(-c2ccc(N3CCOCC3)c(Cl)c2)c(C)n1 [Example 46, 3-(3-chloro-4-morpholinophenyl)-2,6-dimethylpyrimidin-4(3H)-one]",1070 µM,2.80 multiple,
"Cc1cc(=O)n(-c2ccc(N3CCOCC3)c(C(F)(F)F)c2)c(C)n1 [Example 47, 2,6-dimethyl-3-(4-morpholino-3-(trifluoromethyl)phenyl)pyrimidin-4(3H)-one]",930 µM,3.92 multiple,
"Cc1cc(=O)n(-c2ccc3ccn(COc4cccc(C#N)c4)c3c2)c(C)n1 [Example 48, 3-((6-(2,4-dimethyl-6-oxopyrimidin-1(6H)-yl)-1H-indol-1-yl)methoxy)benzonitrile]",350 µM,10.60 multiple,
"Cc1cc(=O)n(-c2ccc(N3CCOCC3)c(F)c2)c(COc2ccc(F)c(F)c2)n1 [Example 49, 2-((3,4-difluorophenoxy)methyl)-3-(3-fluoro-4-morpholinophenyl)-6-methylpyrimidin-4(3H)-one]",70 µM,35.52 multiple,
"Cc1cc(=O)n(-c2ccc(N3CCOCC3)c(F)c2)c(COc2cc(F)cc(F)c2)n1 [Example 50, 2-((3,5-difluorophenoxy)methyl)-3-(3-fluoro-4-morpholinophenyl)-6-methylpyrimidin-4(3H)-one]",60 µM,42.93 multiple,
"Cc1cc(=O)n(-c2ccc(N3CCOCC3)c(F)c2)c(CSc2cccc(F)c2)n1 [Example 51, 3-(3-fluoro-4-morpholinophenyl)-2-(((3-fluorophenyl)thio)methyl)-6-methylpyrimidin-4(3H)-one]",100 µM,25.14 multiple,
"Cc1cc(=O)n(-c2ccc(N3CCOCC3)c(F)c2)c(CCc2cccc(F)c2)n1 [Example 52, 3-(3-fluoro-4-morpholinophenyl)-2-(3-fluorophenethyl)-6-methylpyrimidin-4(3H)-one]",180 µM,14.15 multiple,
"Cc1cc(=O)n(-c2ccc(N3CCOCC3)c(F)c2)c(CCCOc2cccc(F)c2)n1 [Example 53, 3-(3-fluoro-4-morpholinophenyl)-2-(3-(3-fluorophenoxy)propyl)-6-methylpyrimidin-4(3H)-one]",500 µM,15.49 multiple,
"Cc1cc(=O)n(-c2ccc(N3CCN(C)CC3)c(F)c2)c(COc2cccc(F)c2)n1 [Example 55, 3-(3-fluoro-4-(4-methylpiperazin-1-yl)phenyl)-2-((3-fluorophenoxy)methyl)-6-methylpyrimidin-4(3H)-one]",50 µM,46.92 multiple,
"Cc1cc(=O)n(-c2ccc(OCCN3CCOCC3)c(F)c2)c(COc2cccc(F)c2)n1 [Example 56, 3-(3-fluoro-4-(2-morpholinoethoxy)phenyl)-2-((3-fluorophenoxy)methyl)-6-methylpyrimidin-4(3H)-one]",100 µM,54.14 multiple,
"Cc1cc(=O)n(-c2ccc(NCCN3CCOCC3)c(F)c2)c(COc2cccc(F)c2)n1 [Example 57, 3-(3-fluoro-4-((2-morpholinoethyl)amino)phenyl)-2-((3-fluorophenoxy)methyl)-6-methylpyrimidin-4(3H)-one]",100 µM,84.22 multiple,
"Cc1cc(=O)n(-c2ccc(N3CCOCC3)c(F)c2)c(COC2CCCCC2)n1 [Example 58, 2-((cyclohexyloxy)methyl)-3-(3-fluoro-4-morpholinophenyl)-6-methylpyrimidin-4(3H)-one]",290 µM,26.37 multiple,
"Cc1cc(=O)n(-c2ccc(N3CCOCC3)c(F)c2)c(COc2cccnc2)n1 [Example 59, 3-(3-fluoro-4-morpholinophenyl)-6-methyl-2-((pyridin-3-yloxy)methyl)pyrimidin-4(3H)-one]",300 µM,25.50 multiple,
"Cc1cc(=O)n(-c2ccc(N3CCOCC3)c(F)c2)c(COc2cncc(F)c2)n1 [Example 60, 3-(3-fluoro-4-morpholinophenyl)-2-(((5-fluoropyridin-3-yl)oxy)methyl)-6-methylpyrimidin-4(3H)-one]",540 µM,13.72 multiple,
"CCCCCCN(CCCCCC)c1ccc(-n2c(COc3cccc(F)c3)nc(C)cc2=O)cc1F [Example 62, 3-(4-(dihexylamino)-3-fluorophenyl)-2-((3-fluorophenoxy)methyl)-6-methylpyrimidin-4(3H)-one]",310 µM,24.68 multiple,
"Cc1cc(=O)n(-c2ccc(N3CCOCC3)c(Cl)c2)c(COc2cccc(F)c2)n1 [Example 63, 3-(3-chloro-4-morpholinophenyl)-2-((3-fluorophenoxy)methyl)-6-methylpyrimidin-4(3H)-one]",40 µM,47.43 multiple,
"Cc1cc(=O)n(-c2ccc(N3CCOCC3)c(Cl)c2)c(COc2cccc(Cl)c2)n1 [Example 64, 3-(3-chloro-4-morpholinophenyl)-2-((3-chlorophenoxy)methyl)-6-methylpyrimidin-4(3H)-one]",190 µM,10.69 multiple,
"Cc1cc(=O)n(-c2ccc(N3CCOCC3)c(Cl)c2)c(COc2cccc(C#N)c2)n1 [Example 65, 3-((1-(3-chloro-4-morpholinophenyl)-4-methyl-6-oxo-1,6-dihydropyrimidin-2-yl)methoxy)benzonitrile]",20 µM,119.61 multiple,
"Cc1cc(=O)n(-c2ccc(N3CCOCC3=O)c(F)c2)c(COc2cccc(F)c2)n1 [Example 66, 4-(2-fluoro-4-(2-((3-fluorophenoxy)methyl)-4-methyl-6-oxopyrimidin-1(6H)-yl)phenyl) morpholin-3-one]",230 µM,14.95 multiple,
Cc1cc(=O)n(-c2ccc(N3CCOCC3)c(Cl)c2)c(COc2ccc(Cl)c3ccccc23)n1 [Example 67],140 µM,25.09 multiple,
C#Cc1cccc(OCc2nc(C)cc(=O)n2-c2ccc(N3CCOCC3)c(F)c2)c1 [Example 68],110 µM,26.80 multiple,
"Cc1cc(=O)n(-c2ccc(N3CCOCC3)c(F)c2)c(C(F)(F)Oc2cccc(F)c2)n1 [Example 69, 2-(difluoro(3-fluorophenoxy)methyl)-3-(3-fluoro-4-morpholinophenyl)-6-methylpyrimidin-4(3H)-one]",90 µM,42.03 multiple,
"COc1cccc(OCc2nc(C)cc(=O)n2-c2ccc(N3CCOCC3)c(F)c2)c1 [Example 71, 3-(3-fluoro-4-morpholinophenyl)-2-((3-methoxyphenoxy)methyl)-6-methylpyrimidin-4(3H)-one]",80 µM,48.76 multiple,
"Cc1ccc(=O)n(-c2ccccc2)c1 [pirfenidone, 5-methyl-1-phenyl-2-(1H)-pyridone]",,,"could prevent ECM gathering, or even reverse it"

# — patent publication US9434695B2, “Nitrogenous heterocyclic derivatives and their application in drugs” (SUNSHINE LAKE PHARMA CO., LTD., priority 2012, dated 2016)
